This note sets out measurements from US20210068395A1, “METHODS OF APPLYING ONE OR MORE CERTAIN HETEROARYL-1,2,4-TRIAZOLE AND HETEROARYL-TETRAZOLE COMPOUNDS TO CONTROL DAMAGE ON PLANTS, PROPAGATION MATERIAL THEREOF, AND PLANT DERIVED PRODUCTS” (SYNGENTA CROP PROTECTION AG, priority 2018, published 2021).

Bounds are passed on as bounds.

Assay type in all cases: in vivo
Assay [1] deals with Myzus persicae (Green Peach Aphid). As to the kind of experiment: Myzus persicae systemic activity. To be noted: 144 h, test rate 24 ppm, roots of pea seedlings in test solution, 6 days. As to the method:
Roots of pea seedlings infested with an aphid population of mixed ages were placed directly into aqueous test solutions prepared from 10,000 DMSO stock solutions. The samples were assessed for mortality 6 days after placing seedlings into test solutions.

In assay [2] the test system is Spodoptera littoralis (Egyptian Cotton Leaf Worm). As to the kind of experiment: Spodoptera littoralis systemic activity (lettuce). To be noted: 144 h, test rate 12.5 ppm, root uptake in lettuce, 6 days after infestation, read-out: control in at least one of the three categories (mortality or growth inhibition or anti-feeding). From the text:
Test compounds were applied by pipette prepared from 10,000 ppm DMSO stock solutions into 24-well plates and mixed with agar. Lettuce seeds were placed onto the agar and the multi well plate was closed by another plate which contained also agar. After 7 days the compound was absorbed by the roots and the lettuce grew into the lid plate. The lettuce leaves were then cut off into the lid plate. Spodoptera eggs were pipetted through a plastic stencil onto a humid gel blotting paper and the lid plate was closed with it. The samples were assessed for mortality, anti-feeding and growth inhibition 6 days after infestation.

In assay [3] the test system is Chilo suppressalis (Striped Stem Borer). The assay is described as follows: Chilo suppressalis larvicide, feeding/contact. The settings on record: 120 h, test rate 200 ppm, L2 larvae on sprayed rice plants, 5 days after application. As to the method:
Rice plants were treated in a spray chamber, cut off and placed into petri dishes containing wet filter paper. 10 L2 larvae were infested and covered up with a cotton filter and a lid. 5 days after application samples were assessed for mortality.

The test system of assay [4] is Nilaparvata lugens (Brown Plant Hopper). The assay is described as follows: Nilaparvata lugens larvicide, feeding/contact. The settings on record: 168 h, test rate 200 ppm, N3 nymphs on sprayed rice plants, 7 days after treatment, read-out: control in at least one of the two categories (mortality or growth inhibition). As to the method: Rice plants were treated with the diluted test solutions in a spray chamber. After drying plants were infested with ˜20 N3 nymphs. 7 days after the treatment samples were assessed for mortality and growth inhibition.

The test system of assay [5] is Chrysodeixis includens (Soybean Looper). As to the kind of experiment: Chrysodeixis includens larvicide, feeding/contact. The settings on record: 120 h, test rate 50 ppm, L2 larvae on soybean leaves, 5 days after infestation, read-out: control in at least one of the two categories (mortality or growth inhibition). As to the method:
Soybean plants were treated in a spray chamber, cut off and placed into petri dishes containing wet filter paper. 1 d after application leaves were infested with 5 L2 larvae and covered with a fabric filter and plastic lids. 5 days after infestation the samples were assessed for mortality and growth inhibition.

Assay [6] has as its system German cockroaches, Blattella germanica. As to the kind of experiment: Cockroach bait bioassay. To be noted: 72 h, test rate 1000 ppm in peanut butter bait, adults, 3 days. As to the method: The experimental compound is diluted in acetone to 1000 ppm w/v. 1 ml of this solution is added to 1 g of smooth peanut butter in a 15 ml glass vial and thoroughly mixed. This mixture is left in a fume cupboard for 24 hours until all the acetone has evaporated. It is then mixed again to ensure a homogeneous distribution of the experimental compound with a concentration of 1000 ppm w/w.
Ten adult male and ten adult female German cockroaches, Blattella germanica, are placed in a plastic arena approximately 20 cm in diameter. Also placed in each arena are a simple harbourage constructed from concertinaed card, and a water source. After the cockroaches have acclimatised for 24 hours the glass vial containing 1 g of the treated bait is introduced.
Assessment of cockroach mortality is made 3 days after bait introduction.

Assay [7] concerns Anopheles stephensi (Indian Malaria Mosquito). As to the kind of experiment: Anopheles stephensi adult contact on treated plates. To be noted: test rate 200 ppm, adult females, mortality assessed at 24 and 48 hours. How it is done:
Test solutions, at an application rate of 200 ppm in ethanol, were applied to 12 well tissue culture plates. Once the deposits were dry, five, two to five day old adult female Anopheles stephensi were added to each well, and sustained with a 10% sucrose solution in a cotton wool plug. Assessment of knockdown was made one hour after introduction, and mortality was assessed at 24 and 48 hours after introduction.

The test system of assay [8] is house flies, Musca domestica. As to the kind of experiment: House fly adult contact bioassay. The settings on record: 72 h, test rate 100 ppm, adult females, sprayed, 3 days. How it is done:
(§1) Ten adult female house flies, Musca domestica, are placed in a 250 ml plastic drinking cup along with a sugar cube, and retained with a section of netting. Experimental compounds are diluted to 1000 ppm w/v in acetone, then subsequently to 100 ppm w/v in a 0.1% Tween solution in de-ionised water. 1 ml of the experimental solution is sprayed with a Potter tower directly through the retaining net onto the adult house flies. A damp cotton wool ball is placed on top of the retaining net, and the cups held at 24° C. and ambient humidity. Assessment of mortality is made three days after application.

The test system of assay [9] is German cockroaches, Blattella germanica. As to the kind of experiment: Cockroach N3 contact bioassay. The settings on record: 72 h, test rate 100 ppm, third nymphal stage, sprayed, 3 days. How it is done:
as §1, with “third nymphal stage German cockroaches, Blattella germanica, were” for “adult female house flies, Musca domestica, are”, “ca. 1 g of compressed rabbit food,” for “a sugar cube,”, “cockroach nymphs.” for “adult house flies.”

Assay [10] concerns Aedes aegypti (Yellow Fever Mosquito). The assay is described as follows: whole plant or invertebrate. To be noted: test rate 200 ppm, adult females, mortality assessed at 24 and 48 hours. As to the method: Test solutions, at an application rate of 200 ppm in ethanol, were applied to 12 well tissue culture plates. Once the deposits were dry, five, two to five day old adult female Aedes aegypti were added to each well, and sustained with a 10% sucrose solution in a cotton wool plug. Assessment of knockdown was made one hour after introduction, and mortality was assessed at 24 and 48 hours after introduction.

Consider `CC(c1ncnn1-c1ncccn1)N(C)C(=O)c1cc(C(F)(F)F)cc(C(F)(F)F)c1` (centres unmarked) [Compound 1], for which, in assay [1], the mortality at 24 ppm was ≥ 80%. Moreover, the percent control (mortality, anti-feedant effect or growth inhibition) at 12.5 ppm in assay [2] was ≥ 80%. In addition, the mortality at 200 ppm in [3] was ≥ 80%. The percent control (mortality or growth inhibition) at 200 ppm in assay [4] is ≥ 80%. For the same molecule, in assay [5], the percent control (mortality or growth inhibition) at 50 ppm was ≥ 80%.

Turning to `CC(c1ncnn1-c1ncccn1)N(CC1CC1)C(=O)c1cc(C(F)(F)F)cc(C(F)(F)F)c1` (centres unmarked) [Compound 3], the mortality at 1000 ppm in assay [6] was ≥ 80%. Besides, in [1], the mortality at 24 ppm is ≥ 80%. Further, the percent control (mortality, anti-feedant effect or growth inhibition) at 12.5 ppm in [2] was ≥ 80%. Further, the mortality at 200 ppm in assay [7] is ≥ 60%; in assay [3], ≥ 80%; in [10], ≥ 60%. Also, the percent control (mortality or growth inhibition) at 200 ppm in assay [4] was ≥ 80%. The mortality at 100 ppm in assay [8] and in [9] was ≥ 80% throughout. The percent control (mortality or growth inhibition) at 50 ppm in assay [5] is ≥ 80%.

In the case of `CC(NC(=O)c1cc(C(F)(F)F)cc(C(F)(F)F)c1)c1ncnn1-c1ncccn1` (centres unmarked) [Compound 4], the mortality at 1000 ppm in assay [6] is ≥ 80%. In addition, in [2], the percent control (mortality, anti-feedant effect or growth inhibition) at 12.5 ppm was ≥ 80%. The percent control (mortality or growth inhibition) at 200 ppm in assay [4] was ≥ 80%. The mortality at 100 ppm in assay [8] and in assay [9] was ≥ 80% throughout.
